Assay results as given in the NIST ThermoML archive (doi:10.1021/je500305u).
± gives the expanded uncertainty stated by the source.

Test: mn = molality of the nth substance listed, in mol/kg
Details: Liquid, Vibrating tube method

NCCS(=O)(=O)[O-].[K+] [potassium taurate] + O
mass density [kg/m3]
Details | m1 = 0.89 | m1 = 1.6
283 K | 1084 ± 54 | –
288 K | 1083 ± 54 | –
293 K | 1081 ± 54 | 1145 ± 58
298 K | 1079 ± 54 | 1143 ± 58
303 K | 1078 ± 54 | 1141 ± 58
308 K | 1076 ± 54 | 1139 ± 58
313 K | 1073 ± 54 | 1136 ± 58
318 K | 1071 ± 54 | 1134 ± 58
323 K | 1069 ± 53 | 1131 ± 58
328 K | 1066 ± 53 | 1129 ± 57
333 K | 1064 ± 53 | 1126 ± 57
338 K | 1061 ± 53 | 1123 ± 57
343 K | 1058 ± 53 | 1120 ± 57
348 K | – | 1117 ± 56
353 K | 1051 ± 53 | 1114 ± 57
358 K | – | 1111 ± 56
363 K | – | 1108 ± 56
373 K | 1037 ± 52 | 1101 ± 56
393 K | 1021 ± 51 | 1086 ± 55

NCC(=O)[O-].[K+] [potassium glycinate] + O
mass density [kg/m3], 101 kPa
Details | m1 = 0.99 | m1 = 1.78
293 K | 1065 ± 53 | 1130 ± 58
298 K | 1064 ± 53 | 1128 ± 57
303 K | 1062 ± 53 | 1126 ± 57
308 K | 1060 ± 53 | 1124 ± 57
313 K | 1058 ± 53 | 1121 ± 57
318 K | 1056 ± 53 | 1119 ± 57
323 K | 1053 ± 53 | 1116 ± 57
328 K | 1051 ± 53 | 1114 ± 57
333 K | 1048 ± 52 | 1111 ± 57
338 K | 1045 ± 52 | 1108 ± 56
343 K | 1042 ± 52 | 1105 ± 56
348 K | 1039 ± 52 | 1102 ± 56
353 K | 1036 ± 52 | 1099 ± 56
358 K | 1033 ± 52 | 1096 ± 56
363 K | 1030 ± 52 | 1093 ± 56
373 K | 1023 ± 51 | 1086 ± 55
393 K | 1007 ± 50 | –
